# Assays:
# [1] = molecular target: EGFR L858R/C797S Ba/F3 cells (Homo sapiens, UniProt P00533, C797S/L858R, cells depend on it); test: Ba/F3 cell proliferation (Cell Titer Glo), EGFR L858R/C797S; assay type: cell-based, murine; details: 72 hours, Table 6
# Text: (§1) The EGFR mutant L858R Ba/F3 cells have been previously described (Zhou, W., et al. Nature 462, 2009, 1070-1074). The EGFR C797S and C775S mutations were introduced via site directed mutagenesis using the Quick Change Site-Directed Mutagenesis kit into a vector containing EGFR L858R mutation (Stratagene; La Jolla, CA) according to the manufacturer's instructions. All constructs were confirmed by DNA sequencing. The constructs were then shuttled into the retroviral vector JP1540 by either using the Cre-recombination system (Agilent Technologies, Santa Clara, CA) or the In-fusion HD Cloning kit (Takara Bio USA, Inc.; Mountain view, CA). Ba/F3 cells were then infected with retrovirus per standard protocols, as described previously (Zhou, et al, Nature 2009). Stable clones were obtained by selection in puromycin (2 μg/ml). All BaF/3 mutant cells were maintained in RPMI 1640 (Cellgro; Mediatech Inc., Herndon, CA) supplemented with 10% FBS, 100 units/mL penicillin, 100 units/mL streptomycin.
# (§2) Growth and inhibition of growth was assessed by the Cell Titer Glo assay (Promega, Madison, WI) and was performed according to the manufacturer's instructions. The Cell Titer Glo assay is a luminescence-based method used to determine the number of viable cells based on quantitation of the ATP present, which is directly proportional to the amount of metabolically active cells present. Ba/F3 cells of different EGFR genotypes were exposed to compounds for 72 hours and the number of cells used per experiment was determined empirically as has been previously established (Zhou, et al., Nature 2009). All experimental points were set up in triplicates in 384-well plates. […] The curves were fitted using a non-linear regression model with a sigmoidal dose response.
# (§3) Ba/F3 cells assay data are provided below in Table 5 and Table 6. For inhibitory activity against EGFR mutants, the following designations are used: <0.1 μM=A, 0.1 μM˜0.5 μM=B, 0.5 μM˜2.5 μM=C, ≥2.5 μM=D
# [2] = molecular target: EGFR mutant L858R Ba/F3 cells (Homo sapiens, UniProt P00533, L858R, cells depend on it); test: Ba/F3 cell proliferation (Cell Titer Glo), EGFR L858R; assay type: cell-based, murine; details: 72 hours, Table 6, read-out: L858R BaF3
# Chain of EGFR mutant L858R Ba/F3 cells (P00533 whole entry L858R): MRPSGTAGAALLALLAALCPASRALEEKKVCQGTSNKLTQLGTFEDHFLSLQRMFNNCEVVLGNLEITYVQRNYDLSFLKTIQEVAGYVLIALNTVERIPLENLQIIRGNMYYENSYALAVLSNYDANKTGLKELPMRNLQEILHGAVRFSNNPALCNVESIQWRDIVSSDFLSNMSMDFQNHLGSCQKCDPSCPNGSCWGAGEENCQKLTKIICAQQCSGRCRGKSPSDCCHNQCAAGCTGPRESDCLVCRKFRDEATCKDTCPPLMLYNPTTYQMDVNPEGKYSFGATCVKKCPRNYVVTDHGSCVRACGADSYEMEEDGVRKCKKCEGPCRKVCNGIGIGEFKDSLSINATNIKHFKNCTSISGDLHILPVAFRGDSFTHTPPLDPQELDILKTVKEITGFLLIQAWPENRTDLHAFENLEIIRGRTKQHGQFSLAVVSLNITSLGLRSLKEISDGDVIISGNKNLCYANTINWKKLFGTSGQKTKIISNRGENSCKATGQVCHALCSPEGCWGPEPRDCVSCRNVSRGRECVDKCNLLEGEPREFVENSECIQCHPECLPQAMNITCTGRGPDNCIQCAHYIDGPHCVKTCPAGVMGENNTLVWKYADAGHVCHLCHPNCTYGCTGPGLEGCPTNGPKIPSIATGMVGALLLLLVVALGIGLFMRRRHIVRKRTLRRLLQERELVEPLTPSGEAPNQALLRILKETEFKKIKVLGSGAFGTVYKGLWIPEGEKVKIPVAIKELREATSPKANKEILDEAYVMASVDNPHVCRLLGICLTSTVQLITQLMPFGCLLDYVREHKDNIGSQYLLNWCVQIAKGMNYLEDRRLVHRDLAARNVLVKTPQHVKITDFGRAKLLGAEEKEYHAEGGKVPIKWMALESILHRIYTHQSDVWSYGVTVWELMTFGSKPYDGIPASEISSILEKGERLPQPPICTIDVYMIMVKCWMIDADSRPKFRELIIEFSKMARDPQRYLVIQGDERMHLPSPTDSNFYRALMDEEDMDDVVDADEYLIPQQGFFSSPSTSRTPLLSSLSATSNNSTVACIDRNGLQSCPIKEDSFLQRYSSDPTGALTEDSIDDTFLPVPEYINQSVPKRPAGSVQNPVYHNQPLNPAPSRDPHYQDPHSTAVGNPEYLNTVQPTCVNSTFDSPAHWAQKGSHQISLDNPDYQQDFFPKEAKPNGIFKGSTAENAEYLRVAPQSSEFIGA
# Text: as §1, §2, §3
# Chain of EGFR L858R/C797S Ba/F3 cells (P00533 whole entry C797S/L858R, the tested form may be a part): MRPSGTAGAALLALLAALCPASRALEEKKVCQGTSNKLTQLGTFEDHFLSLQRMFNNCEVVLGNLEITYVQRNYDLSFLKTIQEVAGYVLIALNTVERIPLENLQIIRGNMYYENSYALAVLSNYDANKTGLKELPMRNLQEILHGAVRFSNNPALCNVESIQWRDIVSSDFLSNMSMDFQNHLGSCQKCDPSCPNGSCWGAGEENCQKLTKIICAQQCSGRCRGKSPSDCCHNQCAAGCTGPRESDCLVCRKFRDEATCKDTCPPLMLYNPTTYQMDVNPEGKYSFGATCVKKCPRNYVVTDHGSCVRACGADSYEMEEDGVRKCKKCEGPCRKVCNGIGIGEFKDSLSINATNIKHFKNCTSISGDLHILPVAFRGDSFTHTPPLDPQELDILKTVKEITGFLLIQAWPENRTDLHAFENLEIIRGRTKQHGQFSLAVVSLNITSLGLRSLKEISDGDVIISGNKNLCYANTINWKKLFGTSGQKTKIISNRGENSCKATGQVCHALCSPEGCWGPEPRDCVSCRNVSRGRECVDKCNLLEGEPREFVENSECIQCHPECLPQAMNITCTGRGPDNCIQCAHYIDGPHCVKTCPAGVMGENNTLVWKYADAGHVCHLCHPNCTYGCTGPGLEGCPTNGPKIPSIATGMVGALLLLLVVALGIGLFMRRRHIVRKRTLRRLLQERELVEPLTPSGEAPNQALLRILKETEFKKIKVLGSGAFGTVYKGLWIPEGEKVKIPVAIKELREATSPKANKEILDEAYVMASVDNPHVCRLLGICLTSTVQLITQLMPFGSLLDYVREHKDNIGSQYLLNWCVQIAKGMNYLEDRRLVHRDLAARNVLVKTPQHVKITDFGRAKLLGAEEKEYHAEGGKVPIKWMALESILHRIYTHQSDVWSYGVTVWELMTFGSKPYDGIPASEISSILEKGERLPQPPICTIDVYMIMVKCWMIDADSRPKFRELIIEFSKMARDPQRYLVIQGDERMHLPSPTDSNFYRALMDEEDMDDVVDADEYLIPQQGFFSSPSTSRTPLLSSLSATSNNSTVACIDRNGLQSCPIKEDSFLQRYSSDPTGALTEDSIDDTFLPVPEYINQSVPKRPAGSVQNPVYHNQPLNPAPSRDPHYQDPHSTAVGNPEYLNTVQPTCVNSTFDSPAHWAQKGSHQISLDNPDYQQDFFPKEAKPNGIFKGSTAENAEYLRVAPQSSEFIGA
GI50 [1] [nM],GI50 [2] [nM],Structure (SMILES)
≥ 2500,≥ 2500,C=CC(=O)N1CCC(N2Cc3cnc(Nc4ccc(S(=O)(=O)NCCO)cc4)nc3N(C)C2=O)c2ccccc21 (centres unmarked) [Compound 084]
< 100,< 100,"C=CC(=O)N1CCC(N2Cc3cnc(Nc4ccc(N5CCN(C)C6(CC6)C5)cc4)nc3N(C)C2=O)c2ccccc21 (stereo not drawn) [Compound 085, 1-methyl-7-[4-(4-methyl-4,7-diazaspiro[2.5]octan-7-yl)anilino]-S-(1-prop-2-enoyl-3,4-dihydro-2H-quinolin-4-yl)-4H-pyrimido[4,5-d]pyrimidin-2-one]"
< 100,< 100,"C=CC(=O)N1CCC(N2Cc3cnc(Nc4ccc(N5CCN(C)CC5)cn4)cc3N(C)C2=O)c2ccccc21 (stereo not drawn) [Compound 086, 1-methyl-7-[[5-(4-methylpiperazin-1-yl)-2-pyridyl]amino]-S-(1-prop-2-enoyl-3,4-dihydro-2H-quinolin-4-yl)-4Hpyrido[4,3-d]pyrimidin-2-one]"
< 100,< 100,C=CC(=O)N1CCC(N2Cc3cnc(Nc4ccc(N5CCN(C)CC5)cc4OC(F)(F)F)nc3N(C)C2=O)c2ccccc21 (centres unmarked) [Compound 087]
< 100,< 100,C=CC(=O)N1CCC(N2Cc3cnc(Nc4ccc(CN5CCN(C)CC5)c(Cl)c4)nc3N(C)C2=O)c2ccccc21 (centres unmarked) [Compound 088]
≥ 2500,≥ 2500,"C=CC(=O)N1CCC(N2Cc3cnc(Nc4ccc(N5CCN(C)CC5)cc4)nc3N(C)C2=O)CC12CCC2 (stereo not drawn) [Compound 089, 1-methyl-7-[4-(4-methylpiperazin-1-yl)anilino]-S-(5-prop-2-enoyl-5-azaspiro[3.5]nonan-8-yl)-4H-pyrimido[4,5-d]pyrimidin-2-one]"
500 to 2500,500 to 2500,C=C(C)C(=O)N1CC[C@H](N2Cc3cnc(Nc4ccc(N5CCN(C)CC5)cc4)nc3N(C)C2=O)c2ccccc21 [Compound 090]
100 to 500,100 to 500,C/C=C/C(=O)N1CC[C@H](N2Cc3cnc(Nc4ccc(N5CCN(C)CC5)cc4)nc3N(C)C2=O)c2ccccc21 [Compound 091]
≥ 2500,≥ 2500,"C=CC(=O)N1CCC(N2Cc3nnc(Nc4ccc(N5CCN(C)CC5)cc4)cc3N(C)C2=O)c2ccccc21 (stereo not drawn) [Compound 092, 5-methyl-S-[4-(4-methylpiperazin-1-yl)anilino]-7-(1-prop-2-enoyl-3,4-dihydro-2H-quinolin-4-yl)-8H-pyrimido[5,4-c]pyridazin-6-one]"
< 100,< 100,C=C(F)C(=O)N1CC[C@H](N2Cc3cnc(Nc4cnn(CCO)c4)nc3N(C)C2=O)c2ccccc21 [Compound 093]
≥ 2500,≥ 2500,C=CC(=O)N1CCC(N2Cc3cnc(Nc4ccc(N5CCN(C)CC5)cc4)nc3N(C)C2=O)C2(CCC2)C1 (centres unmarked) [Compound 094]
< 100,< 100,CN1CCN(c2ccc(Nc3ncc4c(n3)N(C)C(=O)N([C@H]3CCN(C(=O)/C=C/CF)c5ccccc53)C4)cc2)CC1 [Compound 095]
≥ 2500,≥ 2500,CN1CCN(c2ccc(Nc3ncc4c(n3)N(C)C(=O)N([C@H]3CCN(C(=O)CC#N)c5ccccc53)C4)cc2)CC1 [Compound 096]
500 to 2500,100 to 500,C/C=C(\F)C(=O)N1CC[C@H](N2Cc3cnc(Nc4ccc(N5CCN(C)CC5)cc4)nc3N(C)C2=O)c2ccccc21 [Compound 097]
< 100,< 100,C=C(F)C(=O)N1CC[C@H](N2Cc3cnc(Nc4ccc5c(c4)CCN(C)C5)nc3N(C)C2=O)c2ccccc21 [Compound 098]
< 100,< 100,"C=CC(=O)N1CCC(N2Cc3cnc(Nc4ccc(N5CCN(C)CC5)cc4)nc3N(C)C2=O)c2cccc(F)c21 (centres unmarked) [Compound 099, 3-(8-fluoro-1-prop-2-enoyl-3,4-dihydro-2H-quinolin-4-yl)-1-methyl-7-[4-(4-methylpiperazin-1-yl)anilino]-4H-pyrimido[4,5-d]pyrimidin-2-one]"

GI50 [1] [nM],GI50 [2] [nM],Structure (SMILES)
< 100,< 100,"C=CC(=O)N1CCC(N2Cc3cnc(Nc4ccc(N5CCN(C)CC5)cc4)nc3N(C)C2=O)c2cccc(OC)c21 (centres unmarked) [Compound 100, 3-(8-methoxy-1-prop-2-enoyl-3,4-dihydro-2H-quinolin-4-yl)-1-methyl-7-[4-(4-methylpiperazin-1-yl)anilino]-4H-pyrimido[4,5-d]pyrimidin-2-one]"
≥ 2500,≥ 2500,C/C=C(\C#N)C(=O)N1CC[C@H](N2Cc3cnc(Nc4ccc(N5CCN(C)CC5)cc4)nc3N(C)C2=O)c2ccccc21 [Compound 101]
< 100,< 100,"C=C(F)C(=O)N1CC[C@H](N2Cc3cnc(Nc4cnn(CCO)c4)nc3N(C3CCOC3)C2=O)c2ccccc21 (stereo partly drawn) [Compound 102, 3-((S)-1-(2-fluoroacryloyl)-1,2,3,4-tetrahydroquinolin-4-yl)-7-((1-(2-hydroxyethyl)-1 H-pyrazol-4-yl)amino)-1-(tetrahydrofuran-S-yl)-3,4-dihydropyrimido[4,5-d]pyrimidin-2(1H)-one]"
≥ 2500,≥ 2500,CN1C(=O)N([C@H]2CCN(C#N)c3ccccc32)Cc2cnc(Nc3cnn(CCO)c3)nc21 [Compound 103]
≥ 2500,≥ 2500,CN1C(=O)N([C@H]2CCN(C(=O)CC#N)c3ccccc32)Cc2cnc(Nc3cnn(CCO)c3)nc21 [Compound 104]
≥ 2500,≥ 2500,C=CC(=O)N1CCC(N2Cc3nnc(Nc4ccc(N5CCN(C)CC5)cn4)cc3N(C)C2=O)c2ccccc21 (centres unmarked) [Compound 105]
≥ 2500,≥ 2500,"CN1C(=O)N(C2CN(C#N)c3ccccc32)Cc2cnc(Nc3cnn(CCO)c3)nc21 (centres unmarked) [Compound 106, 3-[7-[[1-(2-hydroxyethyl)pyrazol-4-yl]amino]-1-methyl-2-oxo-4H-pyrimido[4,5-d]pyrimidin-S-yl]indoline-1-carbonitrile]"
≥ 2500,≥ 2500,"C=CC(=O)N1c2ccccc2C(N2Cc3cnc(Nc4ccc(N5CCN(C)CC5)cc4)nc3N(C)C2=O)CC1(C)C (centres unmarked) [Compound 107, 3-(1-acryloyl-2,2-dimethyl-1,2,3,4-tetrahydroquinolin-4-yl)-1-methyl-7-((4-(4-methylpiperazin-1-yl)phenyl)amino)-3,4-dihydropyrimido[4,5-d]pyrimidin-2(1H)-one]"
≥ 2500,500 to 2500,"C=C(F)C(=O)N1CC(F)(F)C(N2Cc3cnc(Nc4cnn(CCO)c4)nc3N(C)C2=O)c2ccccc21 (centres unmarked) [Compound 108, 3-[3,3-difluoro-1-(2-fluoroprop-2-enoyl)-2,4-dihydroquinolin-4-yl]-7-[[1-(2-hydroxyethyl)pyrazol-4-yl]amino]-1-methyl-4H-pyrimido[4,5-d]pyrimidin-2-one]"
< 100,< 100,C=C(F)C(=O)N1CC[C@H](N2Cc3cnc(Nc4ccc5c(c4)CCN(C)C5)nc3N(c3cnn(C)c3)C2=O)c2ccccc21 [Compound 109]
< 100,< 100,"C=C(F)C(=O)N1CC[C@H](N2Cc3cnc(Nc4cnn(CCO)c4)nc3N(CC(F)F)C2=O)c2ccccc21 [Compound 110, 1-(2,2-difluoroethyl)-S-[(4S)-1-(2-fluoroprop-2-enoyl)-3,4-dihydro-2H-quinolin-4-yl]-7-[[1-(2-hydroxyethyl)pyrazol-4-yl]amino]-4H-pyrimido[4,5-d]pyrimidin-2-one]"
500 to 2500,100 to 500,C=C(F)C(=O)N1CC[C@H](N2Cc3cnc(Nc4cnn(CCO)c4)nc3N(c3ccccn3)C2=O)c2ccccc21 [Compound 111]
≥ 2500,≥ 2500,"C=CC(=O)N1CCC(C)(N2Cc3cnc(Nc4cnn(CCO)c4)nc3N(C)C2=O)c2ccccc21 (stereo not drawn) [Compound 112, 7-[[1-(2-hydroxyethyl)pyrazol-4-yl]amino]-1-methyl-S-(4-methyl-1-prop-2-enoyl-2,3-dihydroquinolin-4-yl)-4H-pyrimido[4,5-d]pyrimidin-2-one]"
100 to 500,< 100,"[2H]C1(N2Cc3cnc(Nc4cnn(CCO)c4)nc3N(C3CC3)C2=O)CCN(C(=O)C(=C)F)c2ccccc21 (stereo not drawn) [Compound 113, 1-cyclopropyl-S-[4-deuterio-1-(2-fluoroprop-2-enoyl)-2,3-dihydroquinolin-4-yl]-7-[[1-(2-hydroxyethyl)pyrazol-4-yl]amino]-4H-pyrimido[4,5-d]pyrimidin-2-one]"
≥ 2500,500 to 2500,"[2H]C1(N2Cc3cnc(Nc4cnn(CCO)c4)nc3N(C)C2=O)CCN(C(=O)C=C)c2c(OC)cccc21 (centres unmarked) [Compound 129, 3-(4-deuterio-8-methoxy-1-prop-2-enoyl-2,3-dihydroquinolin-4-yl)-7-[[1-(2-hydroxyethyl)pyrazol-4-yl]amino]-1-methyl-4H-pyrimido[4,5-d]pyrimidin-2-one]"

# Reference: patent US20240352021A1 (DANA-FARBER CANCER INSTITUTE, INC., priority 2021, published 2024)
